Measured values from the supplement of paper PMC10307832.

Assays:
Experiment in all cases: relative viability (nuclei count vs DMSO), 5 days (fraction); higher = more cells survive
[1] = compound: CCC1=CN=CN=C1N2CCN(CC2)CC3=NC4=C(N3)C=C(C=C4)C(F)(F)F + Cc1cc(Nc2cc(N3CCN(C)CC3)nc(Sc3ccc(NC(=O)C4CC4)cc3)n2)n[nH]1 [Tozasertib] (partner 0.1 µM)
How it was run: (§1)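 Dosing by pin tool came one day after lung cancer cell lines were seeded in 1536-well plates, using either one drug or a fixed anchor-drug dose plus five library-drug doses (not always all listed) in √10 steps. After 5 days, nuclei were counted on 4× images. Relative viability is treated-well nuclei count divided by vehicle-well nuclei count, and values are medians of duplicate plates.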

Mirin + Foretinib = compound: N=C1NC(=O)/C(=C/c2ccc(O)cc2)S1 [Mirin] + COc1cc2c(Oc3ccc(NC(=O)C4(C(=O)Nc5ccc(F)cc5)CC4)cc3F)ccnc2cc1OCCCN1CCOCC1 [Foretinib] (partner 0.25 µM)
How it was run: as §1

[2] = compound: CCC1=CN=CN=C1N2CCN(CC2)CC3=NC4=C(N3)C=C(C=C4)C(F)(F)F + CC(=O)Nc1cccc(-n2c(=O)n(C3CC3)c(=O)c3c(Nc4ccc(I)cc4F)n(C)c(=O)c(C)c32)c1 [Trametinib] (partner 0.02 µM)
How it was run: as §1

[3] = compound: CCC1=CN=CN=C1N2CCN(CC2)CC3=NC4=C(N3)C=C(C=C4)C(F)(F)F + COc1cc2c(Oc3ccc(NC(=O)C4(C(=O)Nc5ccc(F)cc5)CC4)cc3F)ccnc2cc1OCCCN1CCOCC1 [Foretinib] (partner 0.25 µM)
How it was run: as §1

Cell Line	relative viability ([1]; first compound 0.04 µM)	relative viability ([1]; first compound 0.1265 µM)	relative viability ([1]; first compound 0.4 µM)	relative viability ([1]; first compound 1.265 µM)	relative viability ([1]; first compound 4 µM)	relative viability (Mirin + Foretinib; first compound 0.25 µM)	relative viability (Mirin + Foretinib; first compound 0.7906 µM)	relative viability (Mirin + Foretinib; first compound 2.5 µM)	relative viability (Mirin + Foretinib; first compound 7.906 µM)	relative viability (Mirin + Foretinib; first compound 25 µM)	relative viability ([2]; first compound 0.04 µM)	relative viability ([2]; first compound 0.1265 µM)	relative viability ([2]; first compound 0.4 µM)	relative viability ([2]; first compound 1.265 µM)	relative viability ([2]; first compound 4 µM)	relative viability ([3]; first compound 0.04 µM)	relative viability ([3]; first compound 0.1265 µM)	relative viability ([3]; first compound 0.4 µM)	relative viability ([3]; first compound 1.265 µM)	relative viability ([3]; first compound 4 µM)
SK-MES-1	0.893	0.872	0.797	0.918	0.865	0.859	1.07	0.914	0.945	1.31	0.569	0.503	0.582	0.516	0.563	0.917	0.925	0.909	0.829	0.882
NCI-H3122	0.423	0.405	0.384	0.345	0.439	0.919	0.906	0.934	1.08	1.09	0.19	0.248	0.201	0.219	0.184	0.924	0.968	0.94	0.978	0.977
NCI-H2023	0.33	0.383	0.343	0.297	0.325	0.806	0.837	0.993	0.894	0.919	0.533	0.53	0.527	0.513	0.453	0.698	0.911	0.849	0.628	0.895
PC-14	0.599	0.546	0.55	0.502	0.582	0.968	0.833	1.09	0.929	1.02	0.828	0.808	0.714	0.71	0.779	1.01	0.825	0.947	0.963	0.997
NCI-H727	0.646	0.621	0.648	0.42	0.619	0.9	0.889	1.18	1.14	1.12	0.346	0.325	0.386	0.323	0.379	0.854	0.811	0.693	0.573	0.949
NCI-H1734	0.267	0.248	0.253	0.283	0.261	0.847	0.739	0.788	0.849	0.702	0.581	0.668	0.604	0.65	0.709	0.828	0.811	0.874	0.816	0.765
NCI-H1650	0.482	0.471	0.273		0.331	1.22	1.11	0.968	1.43	0.782	0.499	0.707	0.573	0.499	0.672	1.26	0.893	0.931		0.808
NCI-H647	0.253	0.296	0.375	0.206	0.393	1.4	1.27	1.14	1.32	0.946	0.501	0.543	0.469	0.238	0.448	1.29	1.12	1.21	1.13	1.41
NCI-H1944	0.269	0.249	0.212	0.218	0.223	0.824	0.95	0.888	0.814	0.557	0.519	0.406	0.4	0.324	0.352	1.1	0.844	0.809	0.648	0.694
LK-2	0.157	0.193	0.171	0.193	0.166	1.24		1.02	0.977	0.586	0.854	0.727	0.666	0.452	0.567	1.29	1.41	1.09	1.12	0.743
HCC-15	0.444	0.357	0.381	0.449	0.391	1.1	1	1.06	0.819	0.882	0.36	0.392	0.372	0.368	0.369	1.02	1.01	1.03	1	1.01
NCI-H838	0.278	0.253	0.306	0.24	0.268	1.05	1.08	1.08	1	0.852	0.574	0.481	0.455	0.412	0.648	1.1	0.986	0.958	0.888	1.09
HOP-62	0.43	0.362	0.39	0.381	0.39	1.17	1.24	1.11	1.1	1.21	0.424	0.378	0.373	0.346	0.355	1.14	1.12	1.07	1.25	0.942
